≈ marks a conversion by molar mass, not a printed value. Where two headings read alike, the source gives them in different places.
What was measured:
A549 Sentinel Line = assay: Sentinel Line reporter assay (beta-gal, FACS); assay type: cell-based, human; details: A549 sentinel line, with Gemcitabine, 40 hrs
Description: The expression level of beta-galactosidase gene in sentinel lines was determined by using a fluorescent substrate fluorescein di-B-D-Galactopyranside (FDG, Marker Gene Tech, #M0250) introduced into cells by hypotonic shock. Cleavage by beta-galactosidase results in the production of free fluorescein, which is unable to cross the plasma membrane and is trapped inside the beta-gal positive cells. Briefly, the cells to be analyzed are trypsinized, and resuspended in PBS containing 2 mM FDG (diluted from a 10 mM stock prepared in 8:1:1 mixture of water: ethanol: DMSO). The cells were then shocked for 4 minutes at 37° C. and transferred to FACS tubes containing cold 1×PBS on ice. Samples were kept on ice for 30 minutes and analyzed by FACS in FLI channel.
Sentinel Line cells with beta-galactosidase reporter gene were plated at 1×10^5 cells/10 cm dish. […] After 40 hrs, the cells were trypsinized and the expression level of reporter gene was determined by FDG loading.
The reporter activity was measured by FACS analysis.

VEGF = VEGF secretion in tumor cells; assay type: cell-based; details: FIG. 8
HIF-1α [1] = assay: HIF-1α induced under normoxia by PHD inhibitor L-mimosone, Hep3B Western blot; assay type: cell-based, human; details: 200 μM L-mimosone, 18 h
Description: Abundance of HIF-1α and β-actin was determined by western blotting.

[2] = system: Panc-1 human pancreatic xenograft; assay: Panc-1 human pancreatic tumor xenograft in nude mice; assay type: in vivo; details: Panc-1; BNC-4 15 mg/ml s.c. pump; Gemcitabine 40 mg/kg q3d×4
From the text: (§1) Female nude mice (nu/nu) between 5 and 6 weeks of age weighing approximately 20 g were implanted subcutaneously (s.c.) by trocar with fragments of human tumors harvested from s.c. grown tumors in nude mice hosts. […] Each group contains 8-10 mice, each of which was ear tagged and followed throughout the experiment.
(§2) The administration of drugs or controls began the day the animals were pair-matched (Day 1). […] Mice were weighed and tumor measurements were obtained using calipers twice weekly, starting Day 1. These tumor measurements were converted to mg tumor weight by standard formula, (W^2×L)/2. The experiment is terminated when the control group tumor size reached an average of about 1 gram. Upon termination, the mice were weighed, sacrificed and their tumors excised. The tumors were weighed and the mean tumor weight per group was calculated.
(§3) The control animals received pumps containing vehicle (50% DMSO in DMEM). The mice treated with standard chemotherapy agent received intra-peritoneal injections of Gemcitabine at 40 mg/kg every 3 days for 4 treatments (q3d×4). Each data point represent average tumor weight (n=8) and error bars indicate SEM.
as §3

[3] = system: Caki-1 human renal cancer xenograft; assay type: in vivo, nude mice; details: Caki-1
From the text: as §1, §2

Na+/K+-ATPase [4] = biological target: T1, Na+/K+-ATPase (Canis lupus familiaris, UniProt P50997); assay: Na+/K+-ATPase inhibition; assay type: biochemical, dog; details: read-out: IC50 for inhibition of Na+/K+-ATPase
T1 construct: enzyme preparation from dog kidney (Sigma); purchased Sigma; host or cells: dog kidney tissue
Description: (§4) Anti-prolerafitive IC50 values were determined by MTS assay using an A549 cell line. Na^+/K^+-ATPase inhibition IC50 values were obtained using enzyme preparation from dog kidney (Sigma).

A549 cell line = assay: anti-proliferation MTS assay in A549 cell line; assay type: cell-based; details: Homo sapiens
Description: as §4

HIF-1α [5] = assay: Western blot using anti-HIF-1α antibody (Example XVI); assay type: cell-based
[6] = system: panel of 10 cancer cell lines; assay: cytotoxicity against a panel of 10 cancer cell lines; assay type: cell-based; details: read-out: median IC50
[7] = effective plasma concentration and effective oral dose in patients; assay type: in vivo; details: Homo sapiens, cancer indications, 1.5 to 3 times that of cardiac indications, read-out: median effective concentration (EC50) of free drug
[8] = steady state serum level of about 50 ng/mL, xenograft nude mouse model
Na+/K+-ATPase [9] = details: Erdmann E 1978; cited from earlier work
[10] = cited from earlier work
[11] = at therapeutic plasma level; cited from earlier work
[12] = cited from earlier work; remark: listed apart in the source
rats = details: cited from earlier work
cats = details: cited from earlier work
[13] = 12 healthy individuals, 2×0.5 mg for 8 days, radio-immunoassay

## C[C@@H]1OC(OC2C=C3CCC4C(CC[C@]5(C)[C@@H](c6ccc(=O)oc6)CC[C@]45O)[C@@]3(C)CC2)[C@H](O)[C@H](O)[C@H]1O (stereo partly drawn) [BNC-4, proscillaridin]
A549 Sentinel Line
  effect on Gemcitabine-induced reporter activity: significantly shift the reporter activity to the left
VEGF
  secretion of VEGF in tumor cells: directly or indirectly inhibits
HIF-1α [1]
  HIF-1α accumulation induced by L-mimosone: eliminated HIF-1α accumulation by L-mimosone
[2]
  TGI: about 87%
[3]; BNC-4 5 mg/ml s.c. pump
  TGI: 43%
[3]; BNC-4 15 mg/ml s.c. pump
  TGI: 73%
Na+/K+-ATPase [4]
  IC50: ~130 nM
A549 cell line
  IC50: ~2.1 nM
HIF-1α [5]; 0.1 μM
  HIF-1α expression: completely inhibits
HIF-1α [5]; 1 μM
  HIF-1α expression: completely inhibits
[6]
  IC50: ~23 nM
[7]
  EC50: 1.2 to 2.5 ng/mL (≈ 2.26 to 4.71 nM)
[8]
  TGI (tumor growth inhibition): greater than 60%
Na+/K+-ATPase [9]
  order of Na+/K+-ATPase-inhibition: Ouabain<Digoxin<Proscillaridin
[10]; [13]
  Tmax: 48 ± 30 min
  median AUC: 385.0 ± 43.6 ng·h/mL
  median Cmax: 23.5 ± 2.6 ng/mL
[10]; according to the literature
  plasma half-life in human: about 40 hours
[10]; after oral administration
  measurable unconjugated drug as share of the administered quantity: 7%
[10]; cardiac patients
  median plasma half-life (T1/2): up to 49 hours
[10]; dosage form with acid-resistant (enteric) coating
  absolute bioavailability: about 35%
[10]; in vivo
  Volume-of-Distribution (VD): 562 L
  daily clearance: ~35%
  drug and its metabolites excreted by the bile: Greater than 99%
  total level of metabolism: > 95%
  unchanged drug excreted by the kidneys: less than 1%
[10]; oral
  time of second, longer-lasting blood level peak: about 1 hour
  time of third plasma peak after dosing: about 10 hours
[10]; patients taking antacids
  higher absorption with decreased stomach acid production: up to 60%
[10]; simple oral formulations
  oral absorption, accepted median: about 20%
[11]
  bound to plasma protein: about 85%
[12]; 0.25 to 0.5 mg/d i.v. for four days before surgery, 50 patients
  tolerability in cancer patients: well tolerated by all cancer patients with no appearance of either gastrointestinal or cardiac side effects
[12]; 47 clinical studies, 3740 patients
  patients exhibiting side-effects: about 6.3%
[12]; 47 clinical studies
  reported cases where therapy could be resumed after a brief hiatus: > 95%
[12]; 1067 patients observed for up to 3 years
  patients taken off the treatment for negative side effects: 0.7%
[12]; cardiac patients
  well tolerated dose: up to 1.5 mg/d
[12]; cardiac patients, listed as Proscillaridin A
  well tolerated dose: ~1.5 mg/day
[12]; cardiologically-normal individuals
  well tolerated dose: up to 3.5 mg/d
[12]; healthy individuals
  dose producing typical intoxication symptoms: above 4 mg p.o./d
[12]; healthy volunteers, 1.5 mg daily for 20 days
  side effects: no negative side effects
[12]; nausea, seasickness, headache, vomiting, stomach cramps, diarrhea
  average level of side effects in clinical reports: 5%
[12]; review of a total of 3740 patients
  long-term or late-appearing chronic toxicity: none of these cases noted any long-term or late-appearing chronic toxicity
rats; adult
  LD50 p.o.: 0.25 mg/kg
rats; young animals (female)
  LD50 p.o.: 76 mg/kg
cats
  intravenous toxicity: 0.193 mg/kg

— patent US20070105789A1, “Combinatorial chemotherapy treatment using Na+/K+ ATPase inhibitors” (priority 2004, published 2007)
